In ChEMBL document CHEMBL2073778, “Identification of lactate as a driving force for prostanoid transport by prostaglandin transporter PGT” (Am J Physiol Renal Physiol, 2002):

Biological target: Solute carrier organic anion transporter family member 2A1 (Homo sapiens, UniProt Q92959)
Test: TP_TRANSPORTER: inhibition of PGE2 uptake in PGT-expressing HeLa cells
Format: functional, cell-based

| SMILES | Ki |
| --- | --- |
| C[C@@H](O)C(=O)O [D-LACTIC ACID] | 48 mM |
| CC(=O)C(=O)O [PYRUVATE] | 26 mM |
| O=C[C@H](O)COP(=O)(O)O | 15 mM |
| C=C(OP(=O)(O)O)C(=O)O [PHOSPHOENOLPYRUVATE] | 13 mM |

The next lines start with the values.

| Ki | SMILES |
| --- | --- |
| 31 mM | O=P(O)(O)OC[C@H]1O[C@@H](O)[C@H](O)[C@@H](O)[C@@H]1O |
| 57 mM | O=C(OP(=O)(O)O)C(O)COP(=O)(O)O (configuration not stated) |
| 51 mM | O=P(O)(O)OC[C@H]1O[C@@](O)(COP(=O)(O)O)[C@@H](O)[C@@H]1O [FRUCTOSE 1,6-DIPHOSPHATE] |
